According to US5478812A, “Chromanol glycoside and method for production thereof” (CCI Corporation, priority 1993, dated 1995):
Converted amounts (≈) assume the structure as drawn. Read-outs that look alike come from different tables or passages of the source.

What was measured:
[1] = background statement, in words; cited from earlier work
solubility in water = type: physicochemical; details: water, 25 °C, constant stirring at 200 rpm; HPLC; read-out: solubility in water (amounts of sample dissolved in 1 ml of water)
Description: The chromanol glycoside obtained in Examples 1 to 5 [6-hydroxy-2,5,7,8-tetramethyl chroman-2-methyl-α-D-glucopyranoside represented by the aforementioned formula (4)], the chromanol glycoside obtained in Examples 6 to 8 [6-hydroxy-2,5,7,8-tetramethyl chroman-2-ethyl-α-D-glucopyranoside represented by the aforementioned formula (7)], the chromanol glycoside obtained in Examples 4 and 5 [6-hydroxy-2,5,7,8-tetramethyl chroman-2-methyl-α-D-maltopyranoside represented by the aforementioned formula (5)], and the chromanol glycoside obtained in Example 8 [6-hydroxy-2,5,7,8-tetramethyl chroman-2-ethyl-α-D-maltopyranoside represented by the aforementioned formula (8)] were tested for solubility in water. Specifically, this test was performed by adding an excess amount of a given chromanol glycoside to 1 ml of water. The reaction mixture was incubated at 25° C. for […] with constant stirring at 200 rpm. After 100 hours, the reaction mixture was transferred into a membrane filter (produced by Nihon Millipore Ltd. and marketed under trademark designation of "HPLC Sample Prep C02-LG") and insoluble substances were removed by centrifugation (4,100×g, 10 minutes, 20° C.). The filtered solution was subjected to HPLC to determine the amount of chromanol glycoside remaining in the aqueous solution. For the purpose of comparison, the 2-substituted alcohols represented by the aforementioned formulas (3) and […] and Trolox were similarly tested.
The numerals given in the tables represent the amounts of sample dissolved in 1 ml of water.

pH stability = type: physicochemical; details: 5.5 mM, buffer/ethanol 5:1 v/v, read-out: Residual amounts (%) after 100 hours
Description: The chromanol glycoside obtained in Examples 1 to 5 [6-hydroxy-2,5,7,8-tetramethyl chroman-2-methyl-α-D-glucopyranoside represented by the aforementioned formula (4)], the chromanol glycoside obtained in Examples 6 to 8 [6-hydroxy-2,5,7,8-tetramethyl chroman-2-ethyl-α-D-glucopyranoside represented by the aforementioned formula (7)], the chromanol glycoside obtained in Examples 4 and 5 [6-hydroxy-2,5,7,8-tetramethyl chroman-2-methyl-α-D-maltopyranoside represented by the aforementioned formula (5)], and the chromanol glycoside obtained in Example 8 [6 -hydroxy-2,5,7,8-tetramethyl chroman-2-ethyl-α-D-maltopyranoside represented by the aforementioned formula (8)] were tested for pH stability. This test was specifically performed by incubating a 5.5 mM chromanol glycoside solution (buffer/ethanol, 5:1 v/v) having a varying pH value. At regular intervals, aliquots of the reaction mixture were withdrawn and the residual amounts of chromanol glycoside were measured by HPC. For the purpose of comparison, the 2-substituted alcohols represented by the aforementioned formulas (3) and (6) and Trolox were similarly tested.
It is clearly noted from the test results that the conversion of 2-substituted alcohols into respective glycosides enhances pH stability. The buffer used for the test were 100 mM acetate buffer of pH 5.5, 100 mM phosphate buffer of pH 7.0, and 100 mM tris-HCl buffer of pH 8,5.

[2] = hydroperoxidation of methyl linoleate via radical chain reaction in hexane/isopropyl alcohol; type: biochemical; details: 0.1 μmol antioxidant in 1.1 ml hexane/isopropyl alcohol 1:1; 37 °C; oil-soluble radical generator; in words
Description: Antioxidant activity on the chromanol glycoside obtained in Examples 1 to 5 [6-hydroxy-2,5,7,8-tetramethyl chroman-2-methyl-α-D-glucopyranoside represented by the aforementioned formula (4)], the chromanol glycoside obtained in Examples 6 to 8 [6-hydroxy-2,5,7,8-tetramethyl chroman-2-ethyl-α-D-glucopyranoside represented by the aforementioned formula (7)], the chromanol glycoside obtained in Examples 4 and 5 [6-hydroxy-2,5,7,8-tetramethyl chroman-2-methyl-α-D-maltopyranoside represented by the aforementioned formula (5)], and the chromanol glycoside obtained in Example 8 [6-hydroxy-2,5,7,8-tetramethyl chroman-2-ethyl-α-D-maltopyranoside represented by the aforementioned formula (8)] was investigated by measuring the hydroperoxidation of methyl linoleate via radical chain reaction. Specifically, this test was performed by incubating 132 μmol of methyl linoleate, 16.5 μmol of an oil-soluble radical generator [2,2'-azo-bis(2,4-dimethyl valeronitrile)], 0.1 μmol of antioxidant in 1.1 ml of a hexane/isopropyl alcohol (1:1 v/v), and the mixture was incubated at 37° C. At regular intervals, aliquots of the reaction mixture were withdrawn and the amount of methyl linoleate hydroperoxides were measured by HPLC. […] EXAMPLE 10

[3] = antioxidant activity using liposomal membranes (phosphatidylcholine hydroperoxides); type: biochemical; details: 0.1 μmol antioxidant in 1.1 ml 10 mM tris-HCl buffer pH 7.4; water-soluble radical generator; in words
Description: Antioxidant activity on the chromanol glycoside obtained in Examples 1 to 5 [6-hydroxy-2,5,7,8-tetramethyl chroman-2-methyl-α-D-glucopyranoside represented by the aforementioned formula (4)[, the chromanol glycoside obtained in Examples 6 to 8 [6-hydroxy-2,5,7,8-tetramethyl chroman-2-ethyl-α-D-glucopyranoside represented by the aforementioned formula (7)], the chromanol glycoside obtained in Examples 4 and 5 [6-hydroxy-2,5,7,8-tetramethyl chroman-2-methyl-α-D-maltopyranoside represented by the aforementioned formula (5)], and the chromanol glycoside obtained in Example 8 [6-hydroxy-2,5,7,8-tetramethyl chroman-2-ethyl-α-D-malto-pyranoside represented by the aforementioned formula (8)] was investigated by using a liposonal membranes. Specifically, this test was performed by adjusting a reaction solution consisting of 5.5 μmol of a multilameller liposomes of egg yolk phosphatidylcholine, 16.5 μmol of a water-soluble radical generator [2,2'-azo-bis(2-amidinopropane) dihydrochloride], and 0.1 μmol of antioxidant in 1.1 ml of a 10 mM tris-HCl buffer (pH 7.4). At regular intervals, aliquots of the reaction mixture were withdrawn and the amount of phosphatidylcholine hydroperoxides were measured by HPLC.

thermal stability = type: physicochemical; details: 5 mM solution in water/ethanol 1:3 v/v, read-out: Residual amounts (%) after 100 hours
Description: The chromanol glycoside obtained in Examples 1 to 5 [6-hydroxy-2,5,7,8-tetramethyl chroman-2-methyl-α-D-glucopyranoside represented by the aforementioned formula (4)], the chromanol glycoside obtained in Examples 6 to 8 [6-hydroxy-2,5,7,8-tetramethyl chroman-2-ethyl-α-D-glucopyranoside represented by the aforementioned formula (7)], the chromanol glycoside obtained in Examples 4 and 5 [6-hydroxy-2,5,7,8-tetramethyl chroman-2methyl-α-D-maltopyranoside represented by the aforementioned formula (5)], and the chromanol glycoside obtained in Example 8 [6-hydroxy-2,5,7,8-tetramethyl chroman-2-ethyl-α-D-maltopyranoside represented by the aforementioned formula (8)]were tested for thermal stability. Specifically, this test was performed by incubating a 5 mM chromanol glycoside solution (water/ethanol, 1:3 v/v) under varying temperature conditions. At regular intervals, aliquots of the reaction mixture were withdrawn and the residual amounts of chromanol glycoside were measured by HPLC. For the purpose of comparison, the 2-substituted alcohols represented by the aforementioned formulas (3) and (6), α-tocopherol, and Trolox were similarly tested.
It is clearly noted from these test results that the conversion of 2-substituted alcohols into corresponding glycosides enhances thermal stability.

[4] = acetate buffer/ethanol 5:1, pH 5.5, pH 5.5 (100 mM acetate buffer)
[5] = phosphate buffer/ethanol 5:1, pH 7, pH 7.0 (100 mM phosphate buffer)
[6] = tris-hcl buffer/ethanol 5:1, pH 8.5, pH 8.5 (100 mM tris-HCl buffer)

SMILES | solubility in water [1] | solubility (solubility in water) [mg/mL] | remaining at 100 h, 5500 µM (pH stability; [4]) [%] | remaining at 100 h, 5500 µM (pH stability; [5]) [%] | remaining at 100 h, 5500 µM (pH stability; [6]) [%] | antioxidant activity (methyl linoleate hydroperoxides) [2] | antioxidant activity (phosphatidylcholine hydroperoxides) [3] | remaining at 100 h, 5000 µM (thermal stability; water/ethanol 1:3, 50 °C) [%] | remaining at 100 h, 5000 µM (thermal stability; water/ethanol 1:3, 60 °C) [%] | remaining at 100 h, 5000 µM (thermal stability; water/ethanol 1:3, 70 °C) [%]
Cc1c(C)c2c(c(C)c1O)CCC(C)(C(=O)O)O2 (centres unmarked) [Trolox, 6-hydroxy-2,5,7,8-tetramethyl chroman-2-carboxylic acid, reference compound] | extremely low solubility in water | 0.2 (≈ 799 µM) | 75 | 35 | 13 | – | – | – | – | –
Cc1c(C)c2c(c(C)c1O)CCC(C)(CCO[C@H]1O[C@H](CO)[C@@H](O[C@H]3O[C@H](CO)[C@@H](O)[C@H](O)[C@H]3O)[C@H](O)[C@H]1O)O2 (stereo partly drawn) [formula (8), 6-hydroxy-2,5,7,8-tetramethyl chroman-2-ethyl-α-D-maltopyranoside] | – | 141 | 57 | 16 | 2 | excel 3,5-tert-butyl-4-hydroxytoluene and equal α-tocopherol | more effective antioxidants than ascorbic acid | – | – | –
Cc1c(C)c2c(c(C)c1O)CCC(C)(CCCC(C)CCCC(C)CCCC(C)C)O2 (stereo not drawn) [α-Tocopherol, reference compound] | – | – | – | – | – | – | – | 85 | 79 | 30
